These results are taken from US20220323583A1, “Pharmaceutical Formulations of Bi-Specific Diabodies and Use of the Same” (MacroGenics, Inc., priority 2019, published 2022).

Data set [1] in a line: Stabilizer solution optimizing studies (turbidity, miscibility, pH, MP in solution). The data set is classed as physicochemical. The procedure: Since the BA concentration in the stabilizer solution is limited due to patient safety concerns, to increase the preservative effectiveness duration, the MP concentration in the stabilizer solution could be increased to 0.1%. However, when the concentrated stabilizer solution is presented as a 20 mL additive volume, this level of MP leads to high solution pH (≥9.0), solution turbidity, and PS80 immiscibility. To address these issues, a series of stabilizer solution optimizing studies were performed to determine the final concentrated stabilizer solution.
The first study explored lower levels of PS80 in the concentrated stabilizer solution to determine if the turbidity and solution instability or immiscibility issues can be addressed. […] However, this concentration of PS80 remains turbid at room temperature. A subsequent study evaluating larger concentrated stabilizer solution additive volume presentations was performed to determine if lowering the levels of all excipients in the concentrated stabilizer solution helps address the high turbidity issue. […] To determine optimal concentrated stabilizer solution pH, studies varying the formulation buffer strength were performed. […] As a result, variable concentrations of MP were evaluated in a subsequent study. […] Based on the results of the previous PS80 and MP studies, a final study was performed evaluating variable concentrations of MP and PS80 to determine the optimal combination that addresses solution turbidity at an acceptable pH. […] When 40 mL of this stabilizer solution is diluted in a 250 mL saline bag, the resulting dosing solution will contain 0.17% BA and 0.055% MP. […] As a result, the preservative effectiveness of the re-formulated Stabilizer 2 solution having final preservative levels of 0.17% BA and 0.05% MP in the dosing solution, was examined through microbial challenge testing of USP recommended microbes.
However, BA levels above 15.5 mg/mL result in solution instability or immiscibility and MP levels above 5.3 mg/mL produce a final solution above pH 8.4. […]

Data set [2] has as its target T1, soluble recombinant human IL-3 receptor alpha (rhIL3Rα) (Homo sapiens, UniProt P26951).
T1 construct: soluble recombinant human IL-3 receptor alpha (rhIL3Rα)
T1 sequence (P26951 19-305 limits assumed): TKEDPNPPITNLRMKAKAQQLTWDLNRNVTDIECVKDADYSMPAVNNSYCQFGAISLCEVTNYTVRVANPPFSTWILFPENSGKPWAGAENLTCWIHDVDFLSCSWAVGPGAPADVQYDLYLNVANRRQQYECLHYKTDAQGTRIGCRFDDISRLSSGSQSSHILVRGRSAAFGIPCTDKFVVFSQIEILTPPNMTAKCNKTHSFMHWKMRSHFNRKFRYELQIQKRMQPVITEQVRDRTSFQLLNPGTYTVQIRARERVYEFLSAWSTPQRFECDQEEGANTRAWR
The data set is described as follows: ELISA (rhIL3Rα) DART-A quantitation assay (concentration, protein recovery). The note with it: 0.05 mg/mL PS80 or 0.1 mg/mL PS80. The procedure: In brief, the assay plate was coated with soluble recombinant human IL-3 receptor alpha (rhIL3Rα) overnight. […] After addition of MSD Read Buffer, the plate was inserted into the Sector Imager 2400 Plate Reader. When a voltage was applied to the plate electrodes, the bound Sulfo-TAG label produces an ECL signal, which was captured by the plate reader. A quantitative measure of the ECL signal emitted by each well was recorded, and the ECL counts emitted by the standard calibrators were used to generate a standard curve using a 4-parameter logistic (4PL) fit.
For orientation: ELISA stands for enzyme-linked immunosorbent assay.

Data set [3] is described as follows: RP-HPLC for BA and MP recovery (preservative concentration). The data set is classed as physicochemical. The note with it: for Tested Benzyl Alcohol Concentration: Study 2, diluted DART-A DP formulation in cassette 25° C., 100 rpm, 5000 ng/mL, expected 0.86%. The procedure:
Preservative recovery was measured using Reverse Phase (RP) HPLC analysis. The RP-HPLC configuration included a photodiode array (PDA) detector (λBA=254 nm, λMP=340 nm), a mobile phase composition of 40% acetonitrile, 0.1% formic acid and a Zorbax® 5 μm Eclipse-XDB-C18 80 Å liquid chromatography column. Samples were diluted ten-fold. The column temperature was set to 40±5° C. 50 μL of solution was injected for each 10-minute run.

A further data set has as its system USP recommended microbes. The data set is described as follows: Microbial challenge testing, statements on several microbes together. Type of data set: cell-based. On the procedure: Microbial challenge testing was performed to evaluate the preservative effect of stabilizer solutions containing ≤0.17% BA and ≤0.1% MP. Microbial challenge testing was chosen as it more accurately represents the proposed dose preparation and dilution scheme where doses will be prepared aseptically and the number of microbes that may be introduced to the solution would be low. Microbial challenge testing was performed in two stages. The first stage determined the effective concentrations of BA and MP while the second stage tested the final formulation according to USP specifications. Each stage is described in detail below.
To confirm the anti-microbial properties of Stabilizer 2 once diluted in saline (i.e., in the dosing solution), microbial growth testing was performed by SGS Life Sciences. The USP recommended microbes required for testing are listed below in Table 26.
A high dosing solution (150 kg patient at 1,000 ng/kg cohort) was prepared to represent the maximum preservative dilution. […] Microbial growth studies were performed on all five USP recommended microbes with a target concentration between 10 and 100 CFU/mL. The microbial growth results are listed below in Table 27.
Microbial Challenge Testing was performed to evaluate the preservative effect of stabilizer solutions. In short, high concentration (1250 ng/mL) dosing solution was prepared according Table 36. USP<51> recommended microbes were introduced to the solution with a target concertation between 10 and 100 CFU/mL. Solutions were stored at the USP<51> recommended temperature for each microbe and at predetermined time points, samples were collected. Testing of samples was performed according to USP<1227>. The threshold for no microbial growth was established to be not greater than 0.5 log colony count compared to the initial concentration of microbe.

Consider `COC(=O)c1ccc(O)cc1` [MP, methylparaben], for which, in data set [1] (concentrated stabilizer solution, pH≤8.0), the “share of the target MP concentration that stays in solution” value is reported as 30-50%. Further, the “MP level that produces a final solution above pH 8.4” value in data set [1] (stabilizer solution) was “above 5.3 mg/mL”.
Regarding polysorbate 80 [PS80], the “blocking activity (inhibition of DART-A adsorption)” value in data set [2] is listed as “sufficient blocking activity”.
Consider `OCc1ccccc1` [Benzyl Alcohol, benzyl alcohol], for which the BA content entry in data set [3] (Study 2, 25° C., 100 rpm shaking for up to 72 hours) is “at least 0.75%”. Further, the “Tested Benzyl Alcohol Concentration” value in data set [3] (T = 0) is 0.91%; in data set [3] (T = 24 hours) it was 0.78%; in data set [3] (T = 48 hours) it was 0.76%; in data set [3] (T = 72 hours), 0.78%. The antimicrobial property entry in the data set on USP recommended microbes (BA 0.17% alone (single pump target concentration)) is “does not inhibit growth”; in the data set with USP recommended microbes (BA 0.9% (concentration in Stabilizer 1), P. aeruginosa and C. albicans) it was “both bactericidal and fungicidal”. Also, the “BA concentration that provided sufficient anti-microbial activity” value in the data set with USP recommended microbes (previous study) turned out to be 0.61%. Also, the “BA level that results in solution instability or immiscibility” value in data set [1] (stabilizer solution) is on record as “above 15.5 mg/mL”.
